Like-named read-outs stand apart in the source and are kept apart here.
Experiments:
Tacaribe virus = test: microbe, parasite or virus in culture; format: cell-based; conditions: Mammarenavirus tacaribeense, Vero, Vero cells
Pichinde virus = test: microbe, parasite or virus in culture; format: cell-based; conditions: Vero, Vero cells
EEEV = test: microbe, parasite or virus in culture; format: cell-based; conditions: Eastern equine encephalitis virus
CHIKV = test: microbe, parasite or virus in culture; format: cell-based, Chikungunya virus
Flu A H3N2 = test: microbe, parasite or virus in culture; format: cell-based, influenza A virus
Poliovirus -1 = test: microbe, parasite or virus in culture; format: cell-based; conditions: Enterovirus C, Vero 76, Poliovirus -1, Vero76 cells
[1] = Cytotoxicity (CC50) run with antiviral assays, BHK cells; format: cell-based; conditions: hamster, Flaviviridae table
Description: Four-concentration CPE inhibition assays are performed. Confluent or near-confluent cell culture monolayers in 96-well disposable microplates are prepared. Cells are maintained in MEM or DMEM supplemented with FBS as required for each cell line. For antiviral assays the same medium is used but with FBS reduced to 2% or less and supplemented with 50 μg/mL gentamicin. The test compound is prepared at four log10 final concentrations, usually 0.1, 1.0, 10, and 100 μg/mL or μM. The virus control and cell control wells are on every microplate. In parallel, a known active drug is tested as a positive control drug using the same method as is applied for test compounds. The positive control is tested with each test run. The assay is set up by first removing growth media from the 96-well plates of cells. Then the test compound is applied in 0.1 mL volume to wells at 2× concentration. […] The dye content in each well is quantified using a 96-well spectrophotometer at 540 nm wavelength. […]
This assay involves similar methodology to what is described in the previous paragraphs using 96-well microplates of cells. […] The incorporated dye content is quantified as described above. […] Compounds observed to be active above are further evaluated by VYR assay. […] Wells are scored for presence or absence of virus after distinct CPE (measured by neutral red uptake) is observed. […]

[2] = female, DBA-1J, mouse, in vivo
[3] = mouse, in vivo
[4] = female, in vivo, po
[5] = test system: pestivirus and hepacivirus; conditions: Stuyver et al., Antimicrob Agents Chemother, 2003; cited from earlier work
in vivo = conditions: ICR (CD-1), mouse, 180 mg/kg
[6] = Cytotoxicity (CC50) run with antiviral assays, HG23 cells; conditions: human
[7] = Cytotoxicity (CC50) run with antiviral assays, HeLa-Ohio cells; conditions: human
[8] = Plasma pharmacokinetics in dogs after a single dose of EIDD-2800; conditions: dog, 140 mg/kg

O=c1nc(NO)ccn1C1OC(CO)C(O)C1O (stereo not drawn) [EIDD-1931, 1-(3,4-dihydroxy-5-(hydroxymethyl)tetrahydrofuran-2-yl)-4-(hydroxyamino)pyrimidin-2-one]
EC50 (Tacaribe virus): 14400 nM
EC50 (Pichinde virus): 18400 nM
EC90 (EEEV; Vero 76): 1680 nM
EC50 (EEEV; Vero, EEE virus, Vero cell cytopathic effect (CPE) model): 1080 nM
EC50 (CHIKV): 1800 nM
EC50 (CHIKV; Chikungunya virus, Vero): 1280 nM
EC50 (Flu A H3N2): 880 nM
EC50 (Flu A H3N2; Influenza A virus, H3N2, MDCK): 960 nM
EC50 (Poliovirus -1): 12800 nM
CC50 [1]: 30000 nM
Bioavailability (versus i.p. delivery) [2]: 39-46%
Bioavailability (versus i.p. delivery) ([2]; 30 mg/kg): 65%
plasma T1/2 ([2]; iv): 2.2 h
body weight [3]: weight loss was observed
t1/2 ([4]; 4 mg/kg): 8.2 ± 1.7 h
t1/2 ([4]; 20 mg/kg): 4.7 ± 1.3 h
t1/2 ([4]; outbred, 128 mg/kg): 5.1 ± 0.8 h
t1/2 ([4]; outbred, 512 mg/kg): 4.2 ± 0.6 h
antiviral activities [5]: antipestivirus and antihepacivirus activities
half-life (in vivo): 1.86 h
CC50 [6]: > 100000 nM
CC50 [7]: > 40000 nM
AUC(0-inf) [8]: 498 ± 40.4 µM·h
tmax [8]: 1.4 ± 0.5 h

From patent publication US11903959B2 (EMORY UNIVERSITY, priority 2017, dated 2024)
